Where a name gives a salt, the structure may show the parent alone.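 Interpolation was linear, between the two tested concentrations surrounding the appropriate level; five concentrations were tested over 48 hours in 96-well plates. GI50: concentration for 50% inhibition of growth.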 The source made the active and inactive calls. Cut-off read from the data, not from the text of the source: active = GI50 up to about 1.1 µM and inactive = higher.
How the values were obtained:
Assay in all cases: NCI anticancer screen, dose series, 48 h
[1] = tested on: ACHN
[2] = tested on: DU-145
[3] = tested on: HL-60
[4] = tested on: HT-29
[5] = tested on: K562
[6] = tested on: MDA-MB-435
[7] = tested on: Malme-3M
[8] = tested on: NCI-H23
[9] = tested on: NCI-H460
[10] = tested on: NCI/ADR-RES
[11] = tested on: SF-268
[12] = tested on: SF-295
[13] = tested on: SF-539
[14] = tested on: SK-MEL-5
[15] = tested on: SN12C
[16] = tested on: SNB-19
[17] = tested on: SNB-75
[18] = tested on: U-251
[19] = tested on: UACC-62
[20] = tested on: UO-31

Row | Structure (SMILES) | GI50 [1] | GI50 [2] | GI50 [3] | GI50 [4] | GI50 [5] | GI50 [6] | GI50 [7] | GI50 [8] | GI50 [9] | GI50 [10] | GI50 [11] | GI50 [12] | GI50 [13] | GI50 [14] | GI50 [15] | GI50 [16] | GI50 [17] | GI50 [18] | GI50 [19] | GI50 [20]
1 | CC[C@@H]1C(=O)OC[C@@H]1Cc1cncn1C [PILOCARPINE HYDROCHLORIDE] | > 100 µM (inactive) | > 100 µM (inactive) | > 100 µM (inactive) | > 100 µM (inactive) | > 100 µM (inactive) | > 100 µM (inactive) | > 100 µM (inactive) | > 100 µM (inactive) | > 100 µM (inactive) | > 100 µM (inactive) | > 100 µM (inactive) | > 100 µM (inactive) | > 100 µM (inactive) | > 100 µM (inactive) | > 100 µM (inactive) | > 100 µM (inactive) | > 100 µM (inactive) | > 100 µM (inactive) | > 100 µM (inactive) | > 100 µM (inactive)
2 | O=C([O-])C(O)C(O)C(=O)O.[K+] (configuration not stated) [POTASSIUM HYDROGENTARTRATE] | > 100 µM (inactive) | > 100 µM (inactive) | > 100 µM (inactive) | > 100 µM (inactive) | > 100 µM (inactive) | > 100 µM (inactive) | > 100 µM (inactive) |  | > 100 µM (inactive) | > 100 µM (inactive) | > 100 µM (inactive) | > 100 µM (inactive) | > 100 µM (inactive) | > 100 µM (inactive) | > 100 µM (inactive) | > 100 µM (inactive) | > 100 µM (inactive) | > 100 µM (inactive) | > 100 µM (inactive) | > 100 µM (inactive)
3 | COC1/C=C\C=C(/C)C(=O)NC2=CC(=O)C(NCCCl)=C(CC(C)CC(OC)C(O)C(C)/C=C(/C)C1OC(N)=O)C2=O (configuration not stated) | 0.281 µM (active) | 0.569 µM (active) | 0.0281 µM (active) | 0.0158 µM (active) | 0.0236 µM (active) | 0.0526 µM (active) | 0.0345 µM (active) | 0.0715 µM (active) | 0.0991 µM (active) | 10.6 µM (inactive) | 0.351 µM (active) | 0.743 µM (active) | 0.127 µM (active) | 0.34 µM (active) | 0.069 µM (active) | 0.927 µM (active) | 0.413 µM (active) | 0.11 µM (active) | 0.0405 µM (active) | 0.728 µM (active)
4 | CC1=C(O)C(O)=C(C2=C(O)C(O)=C(C)C(=O)C2=O)C(=O)C1=O | 28.1 µM (inactive) | 31.3 µM (inactive) | 42.9 µM (inactive) | 59.3 µM (inactive) | 45.7 µM (inactive) | 37.8 µM (inactive) | 20.8 µM (inactive) | 40.7 µM (inactive) | 40.6 µM (inactive) | 36 µM (inactive) | 56.9 µM (inactive) | 31.3 µM (inactive) | 33 µM (inactive) | 27.2 µM (inactive) | 45 µM (inactive) | 50.5 µM (inactive) | 76.2 µM (inactive) | 40.9 µM (inactive) | 18.6 µM (inactive) | 39.1 µM (inactive)
5 | CCN(CC)Cc1cc(Nc2c3ccccc3nc3c4ccccc4n(C)c23)cc(CN(CC)CC)c1O | 5.43 µM (inactive) | 8.67 µM (inactive) | 2.31 µM (inactive) | 3.41 µM (inactive) | 2.76 µM (inactive) | 3.01 µM (inactive) | 2.74 µM (inactive) | 9.64 µM (inactive) | 3.89 µM (inactive) | 2.91 µM (inactive) | 6.78 µM (inactive) | 5.35 µM (inactive) | 3.18 µM (inactive) | 1.65 µM (inactive) | 6.61 µM (inactive) | 12.2 µM (inactive) | 12 µM (inactive) | 5.27 µM (inactive) | 2.81 µM (inactive) | 2.12 µM (inactive)
6 | O=C(OC1C(Oc2ccccc2COC(=O)C2(O)C=CCCC2=O)OC(CO)C(O)C1O)c1ccccc1 (configuration not stated) | 34.2 µM (inactive) | 0.953 µM (active) | 23.6 µM (inactive) | 60.4 µM (inactive) | 34.4 µM (inactive) | 27.5 µM (inactive) | 18 µM (inactive) | 26.4 µM (inactive) | 22.3 µM (inactive) | 34.8 µM (inactive) | 13.2 µM (inactive) |  | 29.6 µM (inactive) | 1.28 µM (inactive) | 25.9 µM (inactive) | 40.9 µM (inactive) | 7.13 µM (inactive) | 20.8 µM (inactive) | 40.2 µM (inactive) | 26.5 µM (inactive)
7 | NNc1ncc2c(n1)-c1ccccc1OC2 | 42.2 µM (inactive) | 61 µM (inactive) | 19.7 µM (inactive) | 43.9 µM (inactive) | 50.9 µM (inactive) | 70.5 µM (inactive) | 51.2 µM (inactive) | > 100 µM (inactive) | 32.3 µM (inactive) | 28 µM (inactive) | 41.6 µM (inactive) | 36.1 µM (inactive) | 46.3 µM (inactive) | 76.9 µM (inactive) | 71.6 µM (inactive) | > 100 µM (inactive) | 35.6 µM (inactive) | 54.2 µM (inactive) | 63.7 µM (inactive) | 41.1 µM (inactive)
8 | Cc1ccc(/N=N/c2c(C)c(C#N)c(=S)n(C3OC(CO)C(O)C(O)C3O)c2C)cc1 (configuration not stated) | 34 µM (inactive) | 53.1 µM (inactive) | 59.6 µM (inactive) | 30.9 µM (inactive) | 18.4 µM (inactive) | 24.6 µM (inactive) | 21.7 µM (inactive) | 32.1 µM (inactive) | 23.7 µM (inactive) | 30.5 µM (inactive) | 50.1 µM (inactive) | 36.3 µM (inactive) | 40.9 µM (inactive) | 17.4 µM (inactive) | 28.2 µM (inactive) | 27.7 µM (inactive) | 25.4 µM (inactive) | 21.2 µM (inactive) | 13.5 µM (inactive) | 37.5 µM (inactive)
9 | COC(=O)c1c(C)cccc1C1CN=NC12Cc1cc(C)cc(C)c1C2=O (configuration not stated) | 41.5 µM (inactive) | 84.7 µM (inactive) | 20 µM (inactive) | 21.5 µM (inactive) | 30.2 µM (inactive) | 37.2 µM (inactive) | 26.2 µM (inactive) | 20.7 µM (inactive) | 32.1 µM (inactive) | 25.2 µM (inactive) | 52.2 µM (inactive) | 35.1 µM (inactive) | 41.3 µM (inactive) | 19.2 µM (inactive) | 41.8 µM (inactive) | 73.3 µM (inactive) | 27 µM (inactive) | 44.7 µM (inactive) | 70.6 µM (inactive) | 28.4 µM (inactive)
10 | O=c1[nH]c(=O)n(COCCO)c2ccsc12 | > 100 µM (inactive) | > 100 µM (inactive) | > 100 µM (inactive) | > 100 µM (inactive) | > 100 µM (inactive) | > 100 µM (inactive) | > 100 µM (inactive) | > 100 µM (inactive) | > 100 µM (inactive) | > 100 µM (inactive) | > 100 µM (inactive) | > 100 µM (inactive) | > 100 µM (inactive) | > 100 µM (inactive) | > 100 µM (inactive) | 32.4 µM (inactive) | > 100 µM (inactive) | > 100 µM (inactive) |  | > 100 µM (inactive)
11 | N#C[C@H](c1nc2ccccc2[nH]1)c1nc2ccccc2nc1Cl | > 23.1 µM (inactive) | 1.78 µM (inactive) | 0.881 µM (active) | 5.55 µM (inactive) | 4.2 µM (inactive) | 14.3 µM (inactive) | 12.4 µM (inactive) | > 34.3 µM (inactive) | > 25.1 µM (inactive) | 29.8 µM (inactive) |  | > 61.4 µM (inactive) | > 100 µM (inactive) | 5.98 µM (inactive) | 12.7 µM (inactive) | 19.9 µM (inactive) | 12.9 µM (inactive) | 15.8 µM (inactive) |  | > 47 µM (inactive)
12 | COc1ccc2c(c1OC)CN1CCc3cc4c(cc3C1C2)OCO4 (configuration not stated) [TETRAHYDROBERBERINE] | > 100 µM (inactive) | > 100 µM (inactive) | > 100 µM (inactive) |  | 80 µM (inactive) | > 100 µM (inactive) | > 100 µM (inactive) | > 100 µM (inactive) | 61 µM (inactive) | > 100 µM (inactive) | > 100 µM (inactive) | > 100 µM (inactive) | > 100 µM (inactive) | > 100 µM (inactive) | > 100 µM (inactive) | > 100 µM (inactive) | > 100 µM (inactive) | > 100 µM (inactive) | > 100 µM (inactive) | > 100 µM (inactive)
13 | O=C1CCC2(CC1CC[S+]([O-])c1ccccc1)OCCO2 (configuration not stated) | > 100 µM (inactive) | > 100 µM (inactive) | 89.7 µM (inactive) | > 100 µM (inactive) | > 100 µM (inactive) | > 100 µM (inactive) | > 100 µM (inactive) | > 100 µM (inactive) | > 100 µM (inactive) | > 100 µM (inactive) | > 100 µM (inactive) | > 100 µM (inactive) | > 100 µM (inactive) | > 100 µM (inactive) |  | > 100 µM (inactive) | > 100 µM (inactive) | > 100 µM (inactive) | > 100 µM (inactive) | > 100 µM (inactive)
14 | COc1cc(Nc2c(C#N)[n+]([O-])c3ccccc3[n+]2[O-])cc(OC)c1OC | 56.8 µM (inactive) | 43.3 µM (inactive) | 41.2 µM (inactive) | 29.9 µM (inactive) | 39.1 µM (inactive) | 37.4 µM (inactive) | 35.2 µM (inactive) | 19.6 µM (inactive) | 35.2 µM (inactive) | 17.3 µM (inactive) | 27.2 µM (inactive) | 46.3 µM (inactive) | 33.6 µM (inactive) | 19.6 µM (inactive) | 35.8 µM (inactive) | 28.6 µM (inactive) | > 100 µM (inactive) | 38 µM (inactive) |  | > 100 µM (inactive)
